Results published in PubChem BioAssay (NCI).
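How tested: cells in 96-well plates exposed to compound for 48 hours at five concentrations. Here, GI50 denotes the concentration required for 50% inhibition of growth. TGI is the concentration that stops growth completely.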

How the values were obtained:
Assay in all cases: growth of human tumour cells (NCI), 48 h
SR leukemia = system: SR leukemia
UACC-62 melanoma = system: UACC-62 melanoma
HS 578T breast = system: HS 578T breast
SF-295 CNS = system: SF-295 CNS
HCT-116 colon = system: HCT-116 colon
786-0 renal = system: 786-0 renal
NCI-H226 lung = system: NCI-H226 lung
HCC-2998 colon = system: HCC-2998 colon
M14 melanoma = system: M14 melanoma
HOP-92 NSCLC = system: HOP-92 NSCLC
NCI-H23 lung = system: NCI-H23 lung
OVCAR-5 ovarian = system: OVCAR-5 ovarian
HL-60(TB) leukemia = system: HL-60(TB) leukemia
T-47D breast = system: T-47D breast
RXF 393 renal = system: RXF 393 renal
HCT-15 colon = system: HCT-15 colon
EKVX NSCLC = system: EKVX NSCLC
LOX IMVI melanoma = system: LOX IMVI melanoma
MDA-MB-231 breast = system: MDA-MB-231 breast
SK-OV-3 ovarian = system: SK-OV-3 ovarian
TK-10 renal = system: TK-10 renal
CAKI-1 renal = system: CAKI-1 renal
SK-MEL-2 melanoma = system: SK-MEL-2 melanoma
SF-539 CNS = system: SF-539 CNS
SW-620 colon = system: SW-620 colon
K-562 leukemia = system: K-562 leukemia
SF-268 CNS = system: SF-268 CNS
MCF7 breast = system: MCF7 breast
A549 NSCLC = system: A549 NSCLC
SN12C renal = system: SN12C renal
HT29 colon = system: HT29 colon
KM12 colon = system: KM12 colon
NCI-H522 lung = system: NCI-H522 lung
SNB-75 CNS = system: SNB-75 CNS
BT-549 breast = system: BT-549 breast
DU-145 prostate = system: DU-145 prostate
RPMI-8226 leukemia = system: RPMI-8226 leukemia
ACHN renal = system: ACHN renal
SNB-19 CNS = system: SNB-19 CNS
U251 CNS = system: U251 CNS
NCI/ADR-RES ovarian = system: NCI/ADR-RES ovarian
UO-31 renal = system: UO-31 renal
SK-MEL-28 melanoma = system: SK-MEL-28 melanoma
HOP-62 NSCLC = system: HOP-62 NSCLC
MOLT-4 leukemia = system: MOLT-4 leukemia
NCI-H460 lung = system: NCI-H460 lung
MDA-MB-435 = system: MDA-MB-435
UACC-257 melanoma = system: UACC-257 melanoma
OVCAR-8 ovarian = system: OVCAR-8 ovarian
CCRF-CEM leukemia = system: CCRF-CEM leukemia
MALME-3M melanoma = system: MALME-3M melanoma
SK-MEL-5 melanoma = system: SK-MEL-5 melanoma
PC-3 prostate = system: PC-3 prostate
OVCAR-4 ovarian = system: OVCAR-4 ovarian
OVCAR-3 ovarian = system: OVCAR-3 ovarian
COLO 205 colon = system: COLO 205 colon
IGROV1 ovarian = system: IGROV1 ovarian
A498 renal = system: A498 renal

Compound: CCN(CC)CCOc1ccc(/C(=C(\C)c2ccc(F)c(OC)c2)c2ccc(Cl)cc2)cc1
- GI50 (SR leukemia): 2010 nM
- TGI (SR leukemia): 6.91 µM
- GI50 (UACC-62 melanoma): 2710 nM
- TGI (UACC-62 melanoma): 5.06 µM
- GI50 (HS 578T breast): 2420 nM
- TGI (HS 578T breast): 5.84 µM
- GI50 (SF-295 CNS): 2610 nM
- TGI (SF-295 CNS): 4.98 µM
- GI50 (HCT-116 colon): 2240 nM
- TGI (HCT-116 colon): 4.86 µM
- GI50 (786-0 renal): 2700 nM
- TGI (786-0 renal): 5.11 µM
- GI50 (NCI-H226 lung): 2530 nM
- TGI (NCI-H226 lung): 5.14 µM
- GI50 (HCC-2998 colon): 2170 nM
- TGI (HCC-2998 colon): 4.36 µM
- GI50 (M14 melanoma): 2810 nM
- TGI (M14 melanoma): 5.64 µM
- GI50 (HOP-92 NSCLC): 1300 nM
- TGI (HOP-92 NSCLC): 3.68 µM
- GI50 (NCI-H23 lung): 2390 nM
- TGI (NCI-H23 lung): 4.97 µM
- GI50 (OVCAR-5 ovarian): 2400 nM
- TGI (OVCAR-5 ovarian): 4.83 µM
- GI50 (HL-60(TB) leukemia): 2690 nM
- TGI (HL-60(TB) leukemia): 6.43 µM
- GI50 (T-47D breast): 2410 nM
- TGI (T-47D breast): 5.86 µM
- GI50 (RXF 393 renal): 2180 nM
- TGI (RXF 393 renal): 4.36 µM
- GI50 (HCT-15 colon): 1080 nM
- TGI (HCT-15 colon): 3.39 µM
- GI50 (EKVX NSCLC): 2460 nM
- TGI (EKVX NSCLC): 5.39 µM
- GI50 (LOX IMVI melanoma): 2460 nM
- TGI (LOX IMVI melanoma): 4.66 µM
- GI50 (MDA-MB-231 breast): 2540 nM
- TGI (MDA-MB-231 breast): 4.8 µM
- GI50 (SK-OV-3 ovarian): 2970 nM
- TGI (SK-OV-3 ovarian): 5.73 µM
- GI50 (TK-10 renal): 2560 nM
- TGI (TK-10 renal): 5.31 µM
- GI50 (CAKI-1 renal): 2420 nM
- TGI (CAKI-1 renal): 4.61 µM
- GI50 (SK-MEL-2 melanoma): 2800 nM
- TGI (SK-MEL-2 melanoma): 5.51 µM
- GI50 (SF-539 CNS): 2450 nM
- TGI (SF-539 CNS): 4.74 µM
- GI50 (SW-620 colon): 2120 nM
- TGI (SW-620 colon): 4.28 µM
- GI50 (K-562 leukemia): 855 nM
- TGI (K-562 leukemia): 6 µM
- GI50 (SF-268 CNS): 2690 nM
- TGI (SF-268 CNS): 5.82 µM
- GI50 (MCF7 breast): 2170 nM
- TGI (MCF7 breast): 4.74 µM
- GI50 (A549 NSCLC): 2610 nM
- TGI (A549 NSCLC): 5.63 µM
- GI50 (SN12C renal): 2380 nM
- TGI (SN12C renal): 4.64 µM
- GI50 (HT29 colon): 582 nM
- TGI (HT29 colon): 2870 nM
- GI50 (KM12 colon): 2270 nM
- TGI (KM12 colon): 4.73 µM
- GI50 (NCI-H522 lung): 2730 nM
- TGI (NCI-H522 lung): 5.79 µM
- GI50 (SNB-75 CNS): 2020 nM
- TGI (SNB-75 CNS): 4.84 µM
- GI50 (BT-549 breast): 2670 nM
- TGI (BT-549 breast): 5.13 µM
- GI50 (DU-145 prostate): 2510 nM
- TGI (DU-145 prostate): 5.28 µM
- GI50 (RPMI-8226 leukemia): 2600 nM
- TGI (RPMI-8226 leukemia): 6.3 µM
- GI50 (ACHN renal): 2700 nM
- TGI (ACHN renal): 5.31 µM
- GI50 (SNB-19 CNS): 2830 nM
- TGI (SNB-19 CNS): 5.17 µM
- GI50 (U251 CNS): 2230 nM
- TGI (U251 CNS): 4.74 µM
- GI50 (NCI/ADR-RES ovarian): 2360 nM
- TGI (NCI/ADR-RES ovarian): 4.69 µM
- GI50 (UO-31 renal): 1890 nM
- TGI (UO-31 renal): 3.96 µM
- GI50 (SK-MEL-28 melanoma): 2440 nM
- TGI (SK-MEL-28 melanoma): 4.71 µM
- GI50 (HOP-62 NSCLC): 2510 nM
- TGI (HOP-62 NSCLC): 4.99 µM
- GI50 (MOLT-4 leukemia): 2490 nM
- TGI (MOLT-4 leukemia): 6.86 µM
- GI50 (NCI-H460 lung): 2070 nM
- TGI (NCI-H460 lung): 4.24 µM
- GI50 (MDA-MB-435): 2430 nM
- TGI (MDA-MB-435): 4.61 µM
- GI50 (UACC-257 melanoma): 2180 nM
- TGI (UACC-257 melanoma): 4.67 µM
- GI50 (OVCAR-8 ovarian): 2580 nM
- TGI (OVCAR-8 ovarian): 5.37 µM
- GI50 (CCRF-CEM leukemia): 2960 nM
- TGI (CCRF-CEM leukemia): 8.55 µM
- GI50 (MALME-3M melanoma): 2090 nM
- TGI (MALME-3M melanoma): 4.7 µM
- GI50 (SK-MEL-5 melanoma): 2810 nM
- TGI (SK-MEL-5 melanoma): 5.21 µM
- GI50 (PC-3 prostate): 2110 nM
- TGI (PC-3 prostate): 4.62 µM
- GI50 (OVCAR-4 ovarian): 2100 nM
- TGI (OVCAR-4 ovarian): 4.45 µM
- GI50 (OVCAR-3 ovarian): 2260 nM
- TGI (OVCAR-3 ovarian): 4.6 µM
- GI50 (COLO 205 colon): 1820 nM
- TGI (COLO 205 colon): 4.51 µM
- GI50 (IGROV1 ovarian): 2450 nM
- TGI (IGROV1 ovarian): 5.4 µM

Compound: CCC1c2[nH]c3ccccc3c2C[C@H]2C(=O)NC(COC(C)(C)C)C(=O)N12 (some centres undefined)
- TGI (SR leukemia): > 100 µM
- TGI (UACC-62 melanoma): > 100 µM
- TGI (HS 578T breast): > 100 µM
- TGI (SF-295 CNS): 65.4 µM
- TGI (HCT-116 colon): > 100 µM
- TGI (786-0 renal): > 100 µM
- TGI (NCI-H226 lung): > 100 µM
- TGI (M14 melanoma): > 100 µM
- TGI (HOP-92 NSCLC): 90.6 µM
- TGI (NCI-H23 lung): > 100 µM
- TGI (OVCAR-5 ovarian): > 100 µM
- TGI (HL-60(TB) leukemia): 60.9 µM
- TGI (T-47D breast): > 100 µM
- TGI (RXF 393 renal): > 100 µM
- TGI (HCT-15 colon): > 100 µM
- TGI (EKVX NSCLC): > 100 µM
- TGI (LOX IMVI melanoma): > 100 µM
- TGI (MDA-MB-231 breast): > 100 µM
- TGI (A498 renal): > 100 µM
- TGI (SK-OV-3 ovarian): > 100 µM
- TGI (TK-10 renal): > 100 µM
- TGI (CAKI-1 renal): > 100 µM
- TGI (SK-MEL-2 melanoma): 85 µM
- TGI (SW-620 colon): > 100 µM
- TGI (K-562 leukemia): > 100 µM
- TGI (SF-268 CNS): > 100 µM
- TGI (MCF7 breast): > 100 µM
- TGI (A549 NSCLC): > 100 µM
- TGI (SN12C renal): > 100 µM
- TGI (HT29 colon): > 100000 nM
- TGI (KM12 colon): > 100 µM
- TGI (NCI-H522 lung): > 100 µM
- TGI (SNB-75 CNS): 78.6 µM
- TGI (BT-549 breast): > 100 µM
- TGI (DU-145 prostate): > 100 µM
- TGI (RPMI-8226 leukemia): > 100 µM
- TGI (ACHN renal): > 100 µM
- TGI (SNB-19 CNS): > 100 µM
- TGI (U251 CNS): > 100 µM
- TGI (NCI/ADR-RES ovarian): > 100 µM
- TGI (UO-31 renal): > 100 µM
- TGI (SK-MEL-28 melanoma): > 100 µM
- TGI (HOP-62 NSCLC): > 100 µM
- TGI (MOLT-4 leukemia): 98.5 µM
- TGI (NCI-H460 lung): > 100 µM
- TGI (MDA-MB-435): > 100 µM
- TGI (UACC-257 melanoma): > 100 µM
- TGI (OVCAR-8 ovarian): > 100 µM
- TGI (MALME-3M melanoma): 94.7 µM
- TGI (SK-MEL-5 melanoma): 93.3 µM
- TGI (PC-3 prostate): 91.9 µM
- TGI (OVCAR-4 ovarian): > 100 µM
- TGI (OVCAR-3 ovarian): > 100 µM
- TGI (COLO 205 colon): 37.6 µM
- TGI (IGROV1 ovarian): > 100 µM
